Numbered stars: 1 amine (or outer) side, 2 acyl side, 3 side chain; on linkers, the order of the positions; unused ones are H or OH. Bridge positions count the residues as written; N and C are the ends. Peptide text beside a SMILES is read from it. I, II: the chains in the order shown. X1 = C[C@@H](CNC(=O)N[C@@H](C)CNC(=O)[*:2])NC(=O)NC[C@H](C)N[*:1]; X7 = C[C@@H](CNC(=O)N[C@@H](C)CNC(=O)[*:1])NC(=O)NC[C@H](C)N[*:2]; X6 = CC(CNC(=O)NC(C)CNC(=O)[*:1])NC(=O)NCC(C)N[*:2]; X8 = CC(CNC(=O)NC(C)CNC(=O)[*:2])NC(=O)NCC(C)N[*:1]
Target: T1, mouse GLP-1 receptor endogenously expressed in βTC6 cells (Mus musculus, UniProt O35659)
T1 construct: host or cells: βTC6 cells
T1 sequence (O35659 22-463): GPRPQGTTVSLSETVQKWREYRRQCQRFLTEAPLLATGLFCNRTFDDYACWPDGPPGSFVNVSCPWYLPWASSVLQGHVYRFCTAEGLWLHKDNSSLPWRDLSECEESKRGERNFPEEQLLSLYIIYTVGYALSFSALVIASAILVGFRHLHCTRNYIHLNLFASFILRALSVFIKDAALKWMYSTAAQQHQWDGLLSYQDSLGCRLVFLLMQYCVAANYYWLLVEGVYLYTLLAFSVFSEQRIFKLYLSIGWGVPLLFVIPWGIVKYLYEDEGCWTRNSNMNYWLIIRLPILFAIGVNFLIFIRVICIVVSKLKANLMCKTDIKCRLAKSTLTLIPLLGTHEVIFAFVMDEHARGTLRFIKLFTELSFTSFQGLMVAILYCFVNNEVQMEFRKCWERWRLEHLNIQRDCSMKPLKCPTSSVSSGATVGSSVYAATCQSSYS
Assay: cAMP production functional assay (HTRF), agonist activity at GLP-1R
Assay type: cell-based
Settings: cAMP production; Table 1
Procedure: The agonistic activity of these hybrids were obtained by functional assays using cells expressing the […] and by measuring the receptor-mediated cAMP produced (see supporting information).
In vitro pharmacology (EC50). […] Following incubation, the cells were lysed and the fluorescence acceptor (D2-labeled cAMP) and fluorescence donor (anti-cAMP antibody labeled with europium cryptate) were added.

Structure (SMILES) | Potency (%), percentage of potency compare to GLP-1-G^2 [%]
CC[C@H](C)[C@H](NC(=O)[C@H](Cc1ccccc1)NC(=O)[C@H](CCC(=O)O)NC(=O)[C@H](CCCCN)NC(=O)[C@H](C)NC(=O)[C@H](C)NC(=O)[C@H](CCC(N)=O)NC(=O)CNC(=O)[C@H](CCC(=O)O)NC(=O)[C@H](CC(C)C)NC(=O)NC[C@H](C)NC(=O)NC[C@H](C)NC(=O)NC[C@H](C)NC(=O)[C@H](CC(=O)O)NC(=O)[C@H](CO)NC(=O)[C@@H](NC(=O)[C@H](Cc1ccccc1)NC(=O)[C@@H](NC(=O)CNC(=O)[C@H](CCC(=O)O)NC(=O)CNC(=O)[C@@H](N)Cc1c[nH]cn1)[C@@H](C)O)[C@@H](C)O)C(=O)N[C@@H](C)C(=O)N[C@@H](Cc1c[nH]c2ccccc12)C(=O)N[C@@H](CC(C)C)C(=O)N[C@H](C(=O)N[C@@H](CCCCN)C(=O)NCC(=O)N[C@@H](CCCNC(=N)N)C(=O)NCC(N)=O)C(C)C [Compound 3, GG2[A^UA^UA^U]^10-13] | 0.04
CC[C@H](C)[C@H](NC(=O)[C@H](Cc1ccccc1)NC(=O)[C@H](CCC(=O)O)NC(=O)[C@H](CCCCN)NC(=O)[C@H](C)NC(=O)NC[C@H](C)NC(=O)NC[C@H](C)NC(=O)NC[C@H](C)NC(=O)[C@H](CC(C)C)NC(=O)[C@H](Cc1ccc(O)cc1)NC(=O)[C@H](CO)NC(=O)[C@H](CO)NC(=O)[C@@H](NC(=O)[C@H](CC(=O)O)NC(=O)[C@H](CO)NC(=O)[C@@H](NC(=O)[C@H](Cc1ccccc1)NC(=O)[C@@H](NC(=O)CNC(=O)[C@H](CCC(=O)O)NC(=O)CNC(=O)[C@@H](N)Cc1c[nH]cn1)[C@@H](C)O)[C@@H](C)O)C(C)C)C(=O)N[C@@H](C)C(=O)N[C@@H](Cc1c[nH]c2ccccc12)C(=O)N[C@@H](CC(C)C)C(=O)N[C@H](C(=O)N[C@@H](CCCCN)C(=O)NCC(=O)N[C@@H](CCCNC(=N)N)C(=O)NCC(N)=O)C(C)C [Compound 10, GG2[A^UA^UA^U]^15-18] (I: H-HGEGTFTSDVSSYL / II: AKEFIAWLVKGRG-NH2; linker I:C-II:N via X1) | 0.2
CC[C@H](C)[C@H](NC(=O)[C@H](Cc1ccccc1)NC(=O)[C@H](CCC(=O)O)NC(=O)[C@H](CCCCN)NC(=O)NC[C@H](C)NC(=O)NC[C@H](C)NC(=O)NC[C@H](C)NC(=O)[C@H](CCC(=O)O)NC(=O)[C@H](CC(C)C)NC(=O)[C@H](Cc1ccc(O)cc1)NC(=O)[C@H](CO)NC(=O)[C@H](CO)NC(=O)[C@@H](NC(=O)[C@H](CC(=O)O)NC(=O)[C@H](CO)NC(=O)[C@@H](NC(=O)[C@H](Cc1ccccc1)NC(=O)[C@@H](NC(=O)CNC(=O)[C@H](CCC(=O)O)NC(=O)CNC(=O)[C@@H](N)Cc1c[nH]cn1)[C@@H](C)O)[C@@H](C)O)C(C)C)C(=O)N[C@@H](C)C(=O)N[C@@H](Cc1c[nH]c2ccccc12)C(=O)N[C@@H](CC(C)C)C(=O)N[C@H](C(=O)N[C@@H](CCCCN)C(=O)NCC(=O)N[C@@H](CCCNC(=N)N)C(=O)NCC(N)=O)C(C)C [Compound 12, GG2[A^UA^UA^U]^16-19] | 0.1
CC[C@H](C)[C@H](NC(=O)[C@H](Cc1ccccc1)NC(=O)[C@H](CCC(=O)O)NC(=O)NC[C@H](C)NC(=O)NC[C@H](C)NC(=O)NC[C@H](C)NC(=O)CNC(=O)[C@H](CCC(=O)O)NC(=O)[C@H](CC(C)C)NC(=O)[C@H](Cc1ccc(O)cc1)NC(=O)[C@H](CO)NC(=O)[C@H](CO)NC(=O)[C@@H](NC(=O)[C@H](CC(=O)O)NC(=O)[C@H](CO)NC(=O)[C@@H](NC(=O)[C@H](Cc1ccccc1)NC(=O)[C@@H](NC(=O)CNC(=O)[C@H](CCC(=O)O)NC(=O)CNC(=O)[C@@H](N)Cc1c[nH]cn1)[C@@H](C)O)[C@@H](C)O)C(C)C)C(=O)N[C@@H](C)C(=O)N[C@@H](Cc1c[nH]c2ccccc12)C(=O)N[C@@H](CC(C)C)C(=O)N[C@H](C(=O)N[C@@H](CCCCN)C(=O)NCC(=O)N[C@@H](CCCNC(=N)N)C(=O)NCC(N)=O)C(C)C [Compound 13, GG2[A^UA^UA^U]^17-20] | 0.01

Further lines, results first:

Potency (%), percentage of potency compare to GLP-1-G^2 [%] | Structure (SMILES)
0.2 | CC[C@H](C)[C@H](NC(=O)[C@H](Cc1ccccc1)NC(=O)[C@H](CCC(=O)O)NC(=O)[C@H](CCCCN)NC(=O)[C@H](C)NC(=O)[C@H](C)NC(=O)[C@H](CCC(N)=O)NC(=O)CNC(=O)[C@H](CCC(=O)O)NC(=O)NC[C@H](C)NC(=O)NC[C@H](C)NC(=O)NC[C@H](C)NC(=O)[C@@H](NC(=O)[C@H](CC(=O)O)NC(=O)[C@H](CO)NC(=O)[C@@H](NC(=O)[C@H](Cc1ccccc1)NC(=O)[C@@H](NC(=O)CNC(=O)[C@H](CCC(=O)O)NC(=O)CNC(=O)[C@@H](N)Cc1c[nH]cn1)[C@@H](C)O)[C@@H](C)O)C(C)C)C(=O)N[C@@H](C)C(=O)N[C@@H](Cc1c[nH]c2ccccc12)C(=O)N[C@@H](CC(C)C)C(=O)N[C@H](C(=O)N[C@@H](CCCCN)C(=O)NCC(=O)N[C@@H](CCCNC(=N)N)C(=O)NCC(N)=O)C(C)C [Compound 4, GG2[A^UA^UA^U]^11-14] (I: EGQAAKEFIAWLVKGRG-NH2 / II: H-HGEGTFTSDV; linker I:N-II:C via X7)
<0.01 | CC[C@H](C)[C@H](NC(=O)[C@H](Cc1ccccc1)NC(=O)[C@H](CCC(=O)O)NC(=O)[C@H](CCCCN)NC(=O)[C@H](C)NC(=O)[C@H](C)NC(=O)[C@H](CCC(N)=O)NC(=O)CNC(=O)NCC(C)NC(=O)NCC(C)NC(=O)NCC(C)NC(=O)[C@H](CO)NC(=O)[C@@H](NC(=O)[C@H](CC(=O)O)NC(=O)[C@H](CO)NC(=O)[C@@H](NC(=O)[C@H](Cc1ccccc1)NC(=O)[C@@H](NC(=O)CNC(=O)[C@H](CCC(=O)O)NC(=O)CNC(=O)[C@@H](N)Cc1c[nH]cn1)[C@@H](C)O)[C@@H](C)O)C(C)C)C(=O)N[C@@H](C)C(=O)N[C@@H](Cc1c[nH]c2ccccc12)C(=O)N[C@@H](CC(C)C)C(=O)N[C@H](C(=O)N[C@@H](CCCCN)C(=O)NCC(=O)N[C@@H](CCCNC(=N)N)C(=O)NCC(N)=O)C(C)C (stereo partly drawn) [Compound 6, GG2[A^UA^UA^U]^12-15] (I: GQAAKEFIAWLVKGRG-NH2 / II: H-HGEGTFTSDVS; linker I:N-II:C via X6)
<0.01 | CC[C@H](C)[C@H](NC(=O)[C@H](Cc1ccccc1)NC(=O)[C@H](CCC(=O)O)NC(=O)[C@H](CCCCN)NC(=O)[C@H](C)NC(=O)[C@H](C)NC(=O)[C@H](CCC(N)=O)NC(=O)NCC(C)NC(=O)NCC(C)NC(=O)NCC(C)NC(=O)[C@H](CO)NC(=O)[C@H](CO)NC(=O)[C@@H](NC(=O)[C@H](CC(=O)O)NC(=O)[C@H](CO)NC(=O)[C@@H](NC(=O)[C@H](Cc1ccccc1)NC(=O)[C@@H](NC(=O)CNC(=O)[C@H](CCC(=O)O)NC(=O)CNC(=O)[C@@H](N)Cc1c[nH]cn1)[C@@H](C)O)[C@@H](C)O)C(C)C)C(=O)N[C@@H](C)C(=O)N[C@@H](Cc1c[nH]c2ccccc12)C(=O)N[C@@H](CC(C)C)C(=O)N[C@H](C(=O)N[C@@H](CCCCN)C(=O)NCC(=O)N[C@@H](CCCNC(=N)N)C(=O)NCC(N)=O)C(C)C (stereo partly drawn) [Compound 7, GG2[A^UA^UA^U]^13-16] (I: QAAKEFIAWLVKGRG-NH2 / II: H-HGEGTFTSDVSS; linker I:N-II:C via X6)
<0.01 | CC[C@H](C)[C@H](NC(=O)NCC(C)NC(=O)NCC(C)NC(=O)NCC(C)NC(=O)[C@H](C)NC(=O)[C@H](CCC(N)=O)NC(=O)CNC(=O)[C@H](CCC(=O)O)NC(=O)[C@H](CC(C)C)NC(=O)[C@H](Cc1ccc(O)cc1)NC(=O)[C@H](CO)NC(=O)[C@H](CO)NC(=O)[C@@H](NC(=O)[C@H](CC(=O)O)NC(=O)[C@H](CO)NC(=O)[C@@H](NC(=O)[C@H](Cc1ccccc1)NC(=O)[C@@H](NC(=O)CNC(=O)[C@H](CCC(=O)O)NC(=O)CNC(=O)[C@@H](N)Cc1c[nH]cn1)[C@@H](C)O)[C@@H](C)O)C(C)C)C(=O)N[C@@H](C)C(=O)N[C@@H](Cc1c[nH]c2ccccc12)C(=O)N[C@@H](CC(C)C)C(=O)N[C@H](C(=O)N[C@@H](CCCCN)C(=O)NCC(=O)N[C@@H](CCCNC(=N)N)C(=O)NCC(N)=O)C(C)C (stereo partly drawn) [Compound 15, GG2[A^UA^UA^U]^19-22] (I: H-HGEGTFTSDVSSYLEGQA / II: IAWLVKGRG-NH2; linker I:C-II:N via X8)
0.01 | CC(C)C[C@H](NC(=O)[C@H](Cc1ccc(O)cc1)NC(=O)[C@H](CO)NC(=O)[C@H](CO)NC(=O)[C@@H](NC(=O)[C@H](CC(=O)O)NC(=O)[C@H](CO)NC(=O)[C@@H](NC(=O)[C@H](Cc1ccccc1)NC(=O)[C@@H](NC(=O)CNC(=O)[C@H](CCC(=O)O)NC(=O)CNC(=O)[C@@H](N)Cc1c[nH]cn1)[C@@H](C)O)[C@@H](C)O)C(C)C)C(=O)N[C@@H](CCC(=O)O)C(=O)NCC(=O)N[C@@H](CCC(N)=O)C(=O)N[C@@H](C)C(=O)N[C@@H](C)C(=O)N[C@@H](CCCCN)C(=O)N[C@@H](CCC(=O)O)C(=O)N[C@@H](Cc1ccccc1)C(=O)N[C@@H](C)CNC(=O)N[C@@H](C)CNC(=O)N[C@@H](C)CNC(=O)N[C@H](C(=O)N[C@@H](CCCCN)C(=O)NCC(=O)N[C@@H](CCCNC(=N)N)C(=O)NCC(N)=O)C(C)C [Compound 17, GG2[A^UA^UA^U]^23-26]
